Data on three compounds can be found in ChEMBL document CHEMBL1140019, “Primary amides as selective inhibitors of cathepsin K” (Bioorg Med Chem Lett, 2007).

Test [1] is filed under the species Homo sapiens. Put plainly: Selectivity for humanized cathepsin K over human cathepsin L.
The species entered for test [2] is Homo sapiens. The experiment in a line: Selectivity for humanized cathepsin K over human cathepsin S.

SMILES strings stand for the structures.

With `CSCC[C@H](NC(=O)[C@H](CC(C)C)N[C@@H](c1ccc(-c2ccc(S(C)(=O)=O)cc2)cc1)C(F)(F)F)C(N)=O`, in the test filed under Homo sapiens [1], the Ratio IC50 is 4300.
On to `CC(C)C[C@H](N[C@@H](c1ccc(-c2ccc(S(C)(=O)=O)cc2)cc1)C(F)(F)F)C(=O)NCC(N)=O`, for which the Ratio IC50 in the test filed under Homo sapiens [2] came to 170.
Consider `CC(C)C[C@H](N[C@@H](c1ccc(-c2ccc(S(C)(=O)=O)cc2)cc1)C(F)(F)F)C(=O)N[C@@H](Cc1ccccc1)C(N)=O`, for which, in the test listed under Homo sapiens [1], the Ratio IC50 was determined as 1700.
